Experimental data taken from patent US4582821A, “Inhibition of cyclic nucleotide independent protein kinases” (E. I. Du Pont de Nemours and Company, priority 1983, dated 1986).

Tests used:
[1] = test system: hexokinase; conditions: Johnson et al., Biochemistry 21:2984 (1982); cited from earlier work
[2] = test system: protein kinase; conditions: Johnson et al., Biochemistry 21:2984 (1982); cited from earlier work
[3] = target: T1, A-431 cell EGF receptor (Homo sapiens, UniProt P00533); experiment: Protein phosphorylation of A-431 cell membrane EGF receptors (intact membranes, EGF present); format: biochemical; conditions: 600 nmoles/mg protein, intact A-431 membranes
T1 construct: intact A-431 cell membranes were employed, rather than solubilized extracts; endogenous in cells; host or cells: A-431 human epidermoid carcinoma cells (plasma membranes)
Experimental: (§1) Protein phosphorylation assays were conducted substantially as described by Carpenter et al., J. Biol. Chem. 254:4884 (1979). Each assay mixture contained, in a final volume of 70 μL: 20 mM Hepes, pH 7.4, 0.01% bovine serum albumin (BSA), 15-150 μg protein in Triton extract, 100 ng EGF, 1 mM MnCl2 and 10-20 μM [γ-^32 P] ATP (2-4 μCi). Peptide halomethyl ketones were added as solutions in ethanol; an equivalent volume of ethanol was added to controls. Assay mixtures were incubated at about 23° for ten minutes, with or without added EGF. Mixtures were then held at 0° for ten minutes before initiation of phosphorylation by addition of 15 μM γ-^32 P) ATP (2 μCi). Reactions were terminated after 3 minutes at 0° by applying an aliquot of the assay mixture to a Whatman 3MM filter paper (2×2 cm), which was then suspended in ice-cold 10% trichloroacetic acid containing 10 mM pyrophosphate. This suspension was gently shaken for a period of 1 hour, during which the trichloroacetic acid/pyrophosphate mixture was changed three times. Finally, the filter papers were dried and radioactivity measured by scintillation counting.
Assays were conducted substantially as described above, except intact A-431 cell membranes were employed, rather than solubilized extracts, and assay mixtures contained 1 mM ouabain. In these Examples, reactions were permitted to proceed for 6 minutes. This technique is substantially similar to that disclosed by Navarro et al., Biochemistry, 21:6138 (1982).

[4] = target: T2, p130^fps (UniProt P00530+P03323); experiment: Immune complex phosphorylation by p130fps immunoprecipitates of FSV-transformed cells; format: biochemical, Fujinami sarcoma virus (FSV); conditions: for Activity (cpm), FSV: anti-gag immunoprecipitates, no inhibitor 27036; for Activity (cpm), Control: extracts immunoprecipitated with normal serum, no inhibitor 2624
T2 construct: anti-gag serum and Staphylococcus protein A suspension (for FSV-transformed cells); viral gag-derived N-terminal portion (natural gag-fps fusion); expressed in transfected cells; immune complex with anti-gag serum and Staphylococcus protein A
Experimental: In this experiment, Boc-LeuCH2 Br was tested as an inhibitor of pp60^src and p130^fps, the tyrosine-specific protein kinases encoded by the transforming genes of RSV and Fujinami sarcoma virus, respectively.
These viral gene products were partially purified by preparation of immune complexes substantially according to the technique described by Collett et al., Proc. Nat. Acad. Sci. USA 75:2021 (1978). In this procedure, immunoprecipitates are prepared by incubation of extracts of virus-transformed cells with tumor-bearing rabbit serum (TBR) and Staphylococcus protein A suspension (for RSV-transformed cells) or anti-gag serum and Staphylococcus protein A suspension (for FSV-transformed cells).
Assay mixtures contained, in a final volume of 70 μL, 100 μg of immune complex protein, 20 mM Hepes, pH 7.4, and 1 mM MnCl2. Phosphorylation was initiated by addition of 1 μM (4 μCi) [γ-^32 P] ATP. After 10 minutes at about 23°, reactions were terminated by pipetting 20 μL aliquots of assay mixture onto 2×2 cm squares of Whatman 3 MM filter paper, which were immediately suspended in 10% TCA/10 mM sodium pyrophosphate. […] Controls for the immunoprecipitation procedure were prepared by immunoprecipitating transformed cell extracts with normal serum. Values in parentheses represent specific phosphorylation induced by virus-transformed cells.
In a related experiment, the capacity of Boc-LeuCH2 Br to inhibit phosphorylation of casein by p130^fps was determined. These tests were conducted substantially as described above, except 1 mg/mL casein was added to assay mixtures as a substrate, and reactions were terminated by addition of 2.5 mM unlabeled ATP and immediate cooling to 0°. Phosphorylated casein was separated from immunoprecipitate suspensions by centrifugation at 3,000 xg for 3 minutes. The resulting pellets were resuspended in 70 μL of 10 mM Hepes, pH 7.5, and 20 μL aliquots were pipetted onto filter paper squares as previously described.
This experiment was conducted substantially according to the procedures described in Example 17, above. In Table 5, "FSV" refers to immunoprecipitates of FSV-transformed cell extracts prepared by addition of anti-gag serum; controls were extracts immunoprecipitated with normal serum.

[5] = test system: A-431 plasma membrane extracts (EGF-mediated protein phosphorylation); experiment: Protein phosphorylation in solubilized A-431 plasma membrane extracts, with or without EGF; format: biochemical, human; conditions: 477 nmol/mg protein
Experimental: The capacity of certain peptide halomethyl ketones to inhibit protein phosphorylation is illustrated by Examples 1-8, below, in which solubilized plasma membranes prepared from A-431 human epidermoid carcinoma cells were incubated with [γ-^32 P] ATP in the presence of EGF.
A-431 human epidermoid carcinoma cells were grown in Dulbecco's modified Eagle's medium containing 5% fetal calf serum. Plasma membranes were isolated by a method substantially similar to that described by Thom et al., Biochem J. 168:187 (1977), and kept at -70°. Solubilization of plasma membranes was performed substantially as described by Cohen et al., J. Biol. Chem. 255:4834 (1980). In this procedure, 7.5 mg/mL protein was solubilized with 5% Triton X-100 (octylphenol), 10% glycerol, and 20 mM Hepes buffer (N-2-hydroxyethylpiperazine-N^1 -2-ethanesulfonic acid), pH 7.4. This mixture was incubated for 20 minutes at about 23°, followed by centrifugation at 100,000 xg for 60 minutes.
as §1

[6] = test system: pp60^src; conditions: Richert et al., Cell 18:369 (1979); cited from earlier work
[7] = test system: ASV-transformed cells; conditions: Weber, Cell 5:253 (1975); cited from earlier work

T1 sequence (P00533 25-1210): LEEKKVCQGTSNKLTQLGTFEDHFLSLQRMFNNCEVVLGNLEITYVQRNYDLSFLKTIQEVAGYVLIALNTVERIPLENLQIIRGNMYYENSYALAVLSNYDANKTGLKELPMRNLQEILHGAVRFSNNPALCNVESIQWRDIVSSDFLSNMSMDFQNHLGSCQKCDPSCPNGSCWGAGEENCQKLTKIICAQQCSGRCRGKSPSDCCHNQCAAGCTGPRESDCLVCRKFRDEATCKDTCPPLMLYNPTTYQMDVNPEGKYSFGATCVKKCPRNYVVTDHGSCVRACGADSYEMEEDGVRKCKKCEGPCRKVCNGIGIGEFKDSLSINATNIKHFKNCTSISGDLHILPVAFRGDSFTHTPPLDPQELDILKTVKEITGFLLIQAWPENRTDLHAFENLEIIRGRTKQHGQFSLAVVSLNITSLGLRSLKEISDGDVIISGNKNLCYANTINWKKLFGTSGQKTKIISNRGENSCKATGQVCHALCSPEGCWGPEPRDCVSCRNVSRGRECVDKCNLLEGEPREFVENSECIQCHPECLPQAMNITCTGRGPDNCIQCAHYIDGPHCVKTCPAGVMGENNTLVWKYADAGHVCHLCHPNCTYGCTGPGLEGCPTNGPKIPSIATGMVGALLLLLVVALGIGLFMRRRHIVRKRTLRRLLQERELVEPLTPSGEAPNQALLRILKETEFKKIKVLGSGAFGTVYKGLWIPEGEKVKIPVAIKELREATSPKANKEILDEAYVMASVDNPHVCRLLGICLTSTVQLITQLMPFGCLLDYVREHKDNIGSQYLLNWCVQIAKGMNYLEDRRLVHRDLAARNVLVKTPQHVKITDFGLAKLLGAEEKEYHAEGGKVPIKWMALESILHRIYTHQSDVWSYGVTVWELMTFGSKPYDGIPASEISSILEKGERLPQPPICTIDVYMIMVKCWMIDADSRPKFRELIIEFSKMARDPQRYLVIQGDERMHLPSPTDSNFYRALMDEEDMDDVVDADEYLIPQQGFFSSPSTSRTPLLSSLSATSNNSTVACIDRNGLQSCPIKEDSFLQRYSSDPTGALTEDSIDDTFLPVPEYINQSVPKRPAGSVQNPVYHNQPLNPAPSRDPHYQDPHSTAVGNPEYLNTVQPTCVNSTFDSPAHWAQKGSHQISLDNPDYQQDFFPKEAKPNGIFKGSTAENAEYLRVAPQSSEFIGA

CC(C)COC(=O)OC(C)C(=O)CCl (stereo not drawn) [2-isobutyl 3-oxo-4-chloro-2-butyl carbonate]
hexokinase activity of Ehrlich ascites tumor cells (in words) [1]: inhibition | protein kinase activity of Ehrlich ascites tumor cells (in words) [2]: inhibition

CC(C)(C)OC(=O)N[C@@H](Cc1ccc(O)cc1)C(=O)CBr [Boc-TyrCH2 Br]
% inhibition [3]: 49% | % inhibition ([4]; 250 nmoles/mg protein): 84% | Activity (cpm), FSV ([4]; 250 nmoles/mg protein): 4204 cpm | Activity (cpm), Control ([4]; 250 nmoles/mg protein): 2132 cpm | % inhibition ([4]; 500 nmoles/mg protein): 87% | Activity (cpm), FSV ([4]; 500 nmoles/mg protein): 3404 cpm | Activity (cpm), Control ([4]; 500 nmoles/mg protein): 2140 cpm | % inhibition, EGF Added ([5]; EGF added): 78% | EGF Added (pmol 32P incorporated/min/mg protein) ([5]; EGF added, control 96.2): 20.6 pmol^32 P incorporated/min/mg | % inhibition, No EGF Added ([5]; no EGF): 83% | No EGF Added (pmol 32P incorporated/min/mg protein) ([5]; no EGF, control 21.6): 3.6 pmol^32 P incorporated/min/mg

Cc1ccc(S(=O)(=O)N[C@@H](CCCCN)C(=O)CCl)cc1 [TLCK, N-α-tosyl-L-lysyl chloromethyl ketone]
in vivo protein phosphorylation activity associated with pp60src (in words) [6]: observed to inhibit | phenotype of ASV-transformed cells upon treatment (in words) [7]: phenotypic reversion of ASV-transformed cells to normal
